Experiments:
FimH [1] = biological target: T1, FimH (Escherichia coli, UniProt P08191); assay type: binding; settings: competitive ELISA
Description: Journal of the American Society for Mass Spectrometry, 2009. […] Tested compounds were added to wells following with FimH treatment.
Plates were coated with 100 μl of 10 mg/ml solution of RNAse-B in 100 mM carbonate/bicarbonate buffer pH 9.6. […] 2 h. Then washed three times with 10 mM PBS containing 0.05% Tween-20. […] Wells were washed three times with 10 mM PBS+0.05% Tween-20. 100 μl of anti-body conjugated to horseradish peroxidase (1:5000) was added in buffer and incubated for 1 h at room temperature. Then washed three times with 10 mM PBS+0.05% Tween-20. Added 100 μl of TMB and incubated in dark for 2-5 min. The reaction was stopped with 100 μl/well 1N sulfuric acid. Plate absorbance was analyzed at 450 nm using microplate reader.
Target sequence in this assay (P08191 22-300): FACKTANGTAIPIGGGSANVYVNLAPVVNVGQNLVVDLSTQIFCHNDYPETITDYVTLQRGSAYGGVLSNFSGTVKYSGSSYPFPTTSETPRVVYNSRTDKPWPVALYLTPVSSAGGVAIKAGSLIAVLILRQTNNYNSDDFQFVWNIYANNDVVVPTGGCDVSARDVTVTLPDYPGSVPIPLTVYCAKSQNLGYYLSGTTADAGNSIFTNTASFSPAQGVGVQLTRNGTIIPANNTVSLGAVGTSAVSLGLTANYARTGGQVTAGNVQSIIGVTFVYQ

[2] = system: CD-associated E. coli strain AIEC LF82; assay: Hemagglutination inhibition (HAI) with AIEC LF82, guinea pig erythrocytes; assay type: cell-based, Escherichia coli
Description: AIEC adhesion to the gut occurs through the binding of FimH adhesins to the mannosylated glycans of intestinal cells. This scenario was first mimicked here with the highly mannosylated glycocalyx of guinea pig erythrocytes.
A two-fold dilution series of the antagonists was added to wells containing guinea pig erythrocytes and AIEC LF82 bacteria. The formation of the cross-linked network (hemagglutination) due to the interaction of the E. coli FimH adhesins with the glycocalyx of the erythrocytes was prevented at a certain concentration of inhibitors. The lowest concentration at which hemagglutination is still inhibited is defined as the inhibition titer of the antagonist. HM was included in the assay to obtain a relative inhibitory concentration (rIC) for the antagonists by dividing the inhibitory concentration (IC) of the substance of interest by the value for HM. In fact, rICs are more accurate than rough inhibition titers to compare the potency of antagonists evaluated in different assays.

[3] = system: AIEC strain LF82 adhesion to T84 intestinal epithelial cells; assay: Adhesion assay on T84 cells with thiazolylaminomannosides (Example 22.3); assay type: cell-based, Escherichia coli
Description: T84 Intestinal Epithelial cells (overexpressing the receptor CEACAM6) were beforehand incubated for 1 h with the synthetic thiazolylaminomannosides 6-20 (examples 3-17) at different concentrations. Each compound was tested four times at concentrations of 0.1, 1, 10 and 100 μM.
The cells were then infected in the presence of inhibitory compounds by the AIEC strain of reference LF82 for 3 hours at a multiplicity of infection of 10 bacteria to a cell. After 3 h of incubation, the monolayer was washed and the number of AIEC bacteria associated with cells was counted. The level of adhesion of AIEC LF82 strain in the presence of inhibitors (residual adhesion) was expressed relatively to the level of adherence in the absence of any treatment (considered 100%) (FIG. 10).

[4] = system: AIEC LF82 bacteria on colonic tissue from transgenic mice expressing human CEACAM6; assay: Ex-vivo adhesion assay on colonic tissue of CEABAC10 mice; set-up: species or system CEABAC10 transgenic mice
Description: E. coli strain LF82 was isolated from a chronic ileal lesion of a patient with Crohn's disease (CD). Bacteria were grown routinely in Luria-Bertani (LB) broth overnight at 37° C.
Adhesion assay of AIEC LF82 bacteria were performed using colonic tissue from transgenic mice expressing the human CEACAM6 protein (C. H. Chan, C. P. Stanners “Novel mouse model for carcinoembryonic antigen-based therapy”, Mol Ther. 2004; 9, 775-785). Briefly, 10 to 12-week-old FVB/N CEABAC10 transgenic mice were anesthetized, euthanized by cervical dislocation and colons were removed. Colons were washed twice in phosphate buffer saline (PBS) and were segmented in 4 independent loops of ≈0.6 cm. A volume of 100 μL of LF82 bacteria at 2×10^6 bacteria/mL in PBS or of a mix of LF82 bacteria+D-mannose (1 μmol and 10 μmol) or compound 13 (0.1 μmol and 0.01 μmol) were injected into the loops. Loops were incubated 1 h at 37° C. in an atmosphere containing 5% of CO2, and then opened and washed 4 times in PBS. Tissues were homogenized, appropriately diluted and plated onto Luria-Bertani agar plates containing ampicillin (100 μg/mL) and erythromycin (20 μg/mL) to select AIEC LF82 bacteria.
Entire colons from CEABAC10 mice were collected and washed two times with PBS. The colon was divided in 4 isolated loops and 100 μL of a bacterial suspension containing […] bacteria/mL with or without inhibitory compounds were injected into the loops. D-mannose was tested at a dose of 1 and 10 μmol and monovalent 13 was tested at a dose of 0.01 and 0.1 μmol. After a 1 h-period of incubation, samples were extensively washed and homogenized to numerate adherent bacteria. Bacterial adhesion was expressed as percentages of residual adhesion (100% corresponds to the adhesion in absence of any compound).

Caco-2 cells = assay: Blockage of cytotoxic effect of microparticle-FimH, flow cytometry; assay type: cell-based; settings: Caco2
Excerpt: It was shown that upon binding of FimH adhesin to uroplakin UPIIIa its cytoplasmic tail undergoes phosphorylation on a specific threonine residue by casein kinase II, followed by an elevation of intracellular calcium triggering apoptosis (Thumbikat, P.; Berry, R. E.; Zhou, G.; Billips, B. K.; Yaggie, R. E.; Zaichuk, T.; Sun, T.-T.; Schaeffer, A. J.; Klumpp, D. J. PLoS Pathog 2009, 5, e1000415). […] It is needed to mentioned that according to our observations that Caco2 cells, unlike human blood cells, (Bilyy R. O.; Shkandina, T.; Tomin, A.; Muñoz, L E.; Franz, S.; Antonyuk, V.; Kit, Y. Y.; Zirngibl, M.; Fürnrohr, B. G.; Janko, C.; Lauber, K.; Schiller, M.; Schett, G.; Stoika, R. S.; Herrmann, M., J. Biol. Chem. 2012, 287, 496-503) are very quickly converted from apoptotic to secondary necrotic (PI-positive). […]
Cell viability was assessed by a trypan blue exclusion test. […]
Apoptotic cells were identified by using annexin V-FITC and PI, according to the manufacturer's protocol. […] Cells were then resuspended in a solution of annexin V-FITC and PI prepared in Ringer buffer, incubated 30 min at 4° C. in the dark, and analyzed on a FACS scan flow cytometer (BD Biosciences). A minimum of 10,000 events per sample was recorded. […]

human Jurkat T-cell line = assay: Toxicity of 13 towards Jurkat T-cells; assay type: cell-based; settings: 100 nM
UTI89 E. coli = assay: Inhibition of haemagglutination (Example 19); assay type: cell-based, Escherichia coli; settings: two-fold dilution from 1 mM
Description: Interaction of E. coli FimH adhesins with the glycocalyx of guinea pig erythrocytes forms a cross-linked network into the wells. Glycoconjugates added in a two-fold dilution series prevents the agglutination reaction. The inhibition titer is defined as the lowest concentration of the glycoconjugate at which haemagglutination is still inhibited. UTI89 E. coli were grown statically overnight in LB at 37° C., washed three times in ice-cold phosphate-buffered saline and resolubilized. A two-fold dilution of glycoconjugates was prepared in 25 μL 20 mM HEPES pH 7.4 with 150 mM NaCl, starting from 1 mM as the highest concentration. The bacterial solution (25 μL) was added to the two-fold dilution series of the compound. Finally 50 μl of guinea pig red blood cells, washed in buffer and diluted to 5%, were added to a final 100 μL and left on ice for 30 min. before read-out. Due to serial dilutions, the maximal error is ±one well, or a factor two (FIG. 2).

lectin domain of FimH = biological target: T2, lectin domain of FimH (Escherichia coli, UniProt P08191); assay: Surface plasmon resonance solution competition assay; assay type: binding; settings: solution affinity
T2 construct: The lectin domain of FimH was expressed as described previously and purified at pH 4.0; made in house
T2 sequence (P08191 22-179): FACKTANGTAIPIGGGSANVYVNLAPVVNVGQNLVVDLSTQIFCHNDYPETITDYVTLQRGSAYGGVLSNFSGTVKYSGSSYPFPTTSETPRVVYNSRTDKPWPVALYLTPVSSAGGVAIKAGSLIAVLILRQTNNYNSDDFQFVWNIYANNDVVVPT
Description: The affinity of the compounds was first evaluated and then measured in a surface plasmon resonance solution competition assay. The lectin domain of FimH was expressed as described previously and purified at pH 4.0 in 50 mM HCOOH on a SPFF (sulfopropyl fast flow) ion exchange column (GE Healthcare). A CM5 sensor chip (Biacore, GE Healthcare) has been coated with a layer of amino-functionalized monovalent heptyl mannoside to 60 RU (response units) and the kinetics of FimH binding to the sensor chip has been determined. All data collection have been performed in HBS buffer complemented with 3 mM EDTA and 0.01% Tween20. Regeneration was done with a single 10 s injection of 100 mM NaOH in water.
The solution affinity provided by the Biacore software uses the equation (B−A−Kd)/2+(0.25*(A+B+Kd)^2−A*B)^0.5, with B presenting the uninhibited concentration of FimH, and A the variable compound concentration.

FimH [5] = biological target: T1, FimH; assay: Isothermal titration calorimetry of compound 6; assay type: binding
Description: For compound 6 (example 3), the enthalpy, the affinity equilibrium constant Ka and the molar ratio have moreover been measured using ITC. Integrated heat effects were analyzed by nonlinear regression using a single-site binding model (Origin 7.0). The experimental data fitted to a theoretical titration curve gave the association constant (Ka), the enthalpy of binding (ΔH) and the molar ratio n. The entropic contribution to the affinity and the change in Gibbs free energy (ΔG) have been calculated from the equation ΔG=ΔH−TΔS=−RTlnKa, where T is the absolute temperature and R is the molar gas constant (8.314 J·mol−1·K−1).
Target sequence in this assay (P08191 22-179): as above

human Jurkat cells = assay: Prevention of FimH-induced apoptosis of Jurkat cells (24 h)
Description: Eventually, we tested the ability of mannose-based inhibitors to prevent the induction of cell death of human Jurkat cells under the treatment with FimH. We cultures cells with the indicated compound for 24 h and counter percentage of viable (AnV−/Pi−), apoptotic (AnV+/Pi−) and necrotic cells (AnV+/PI+). […] 2. […] 3.
Apoptosis was induced by UV-B irradiation with 90 mJ/cm^2, apoptosis of human PMN cells was induced by 24 h aging. To quantify the rate of apoptosis, cells were analyzed by flow cytometry or fluorescent microscopy. Amongst other features, apoptosis is characterized by blebbing of the cellular membrane, leading to a decrease in the forward scatter (FSC) and an increase in the sideward scatter (SSC). For detection of phosphatidylserine (PS) exposure on the cell surface staining with FITC conjugated annexin V (Böhringer, Mannheim, Germany) in combination with propidium iodide (PI) (AxV/PI) was performed. 200.000 cells were stained for 30 minutes at 4° C. with 200 ng of AxV-FITC and 500 ng propidium iodide (PI) in 500 μl Ringer's solution [Nicoletti, Migliorati, Pagliacci, Grignani and Riccardi, A rapid and simple method for measuring thymocyte apoptosis by propidium iodide staining and flow cytometry. J Immunol Methods, 1991. 139.271-9]. The samples were immediately analyzed by flow cytometry of fluorescent microscopy.

| Structure (SMILES) | Level of inhibition compared to the HM reference (FimH [1]) | Concentration blocking FimH binding towards oligomannose glycans (FimH [1]; RNAseB substrate) [nM] | Inhibitory potency in HAI (in words) [2] | Residual adhesion ([3]; 0.1 μM) [%] | Inhibitory effect on adhesion ([3]; 100 nM) | AIEC remaining attached to the cells (residual adhesion) ([3]; 1 μM) [%] | Residual adhesion ([3]; 10 μM) [%] | rIC relative to HM ([3]; dose-dependent inhibition similar to HM at 100-fold lower concentration) | Efficiency relative to D-mannose [4] [fold] | Bacterial adhesion ([4]; 0.1 μmol, 1 h) | Effect on amount of dead cell in population (Caco-2 cells; 100 nM alone) | Dead cells in population (Caco-2 cells; co-treatment with microparticles-FimH and 100 nM) [%] | Toxicity towards human blood cells (Jurkat T-cell line) (human Jurkat T-cell line) | Inhibitory potency in haemagglutination (FIG. 2) (UTI89 E. coli) | Kd (lectin domain of FimH; measurement 1) [nM] | Kd (lectin domain of FimH; measurement 2) [nM] | Kd (FimH [5]) [nM] | Prevention of apoptosis induction by FimH (human Jurkat cells; 500 nM) | Toxicity to Jurkat cells (human Jurkat cells; tested concentrations, 24 h) |
| --- | --- | --- | --- | --- | --- | --- | --- | --- | --- | --- | --- | --- | --- | --- | --- | --- | --- | --- | --- |
| Cc1nc(-c2cnccn2)sc1C(=O)c1cnc(N[C@H]2OC(CO)[C@@H](O)[C@H](O)C2O)s1 (mixture of isomers) [Compound 13, 2-(α-D-mannopyranosyl)amino-5-(4-methyl-2-(pyrazin-2-yl)thiazole-5-carbonyl)thiazole] | significantly higher level of inhibition | 5 | second most potent compound | 57.6 | significant inhibitory effect | 14 | 2.12 | ~0.01 | 100 | significant decrease | no significant effect | 16.5 | nontoxic |  |  |  |  |  |  |
| CC(=O)c1cnc(N[C@H]2O[C@H](CO)[C@@H](O)[C@H](O)[C@@H]2O)s1 [Compound 6, 5-acetyl-2-((α-D-mannopyranosyl)amino)thiazole] |  |  | less potent than HM |  |  |  |  |  |  |  |  |  |  | equivalent to the one for HM | 216 | 220 ± 7.71 | 197 | effectively prevented apoptosis induction | not toxic |
